Measured values from patent publication US8071587B2, “(Dihydro)imidazoiso[5,1-A]quinolines” (N. V. Organon, priority 2009, dated 2011).

Compared with `COc1cc2c(cc1-c1cccc(-n3cccn3)c1)-c1c(-c3cccs3)nc(C(=O)N(C)C(C)(C)C)n1CC2` [Example 2g, 8-Methoxy-9-(3-pyrazol-1-yl-phenyl)-1-thiophen-2-yl-5,6-dihydro-imidazo[5,1-a]isoquinoline-3-carboxylic acid tert-butyl-methyl-amide], `COc1cc2c(cc1-c1cccc(N(C)C)c1)-c1c(-c3cccs3)nc(C(=O)N(C)C(C)(C)C)n1CC2` [Example 2l, 9-(3-Dimethylamino-phenyl)-8-methoxy-1-thiophen-2-yl-5,6-dihydro-imidazo[5,1-a]isoquinoline-3-carboxylic acid tert-butyl-methyl-amide] is lower in melting point: 180 °C for the first, 149 °C for the second.

First: COc1cc2c(cc1CC(C)C)-c1c(-c3cccs3)nc(C(=O)N(C)C(C)(C)C)n1CC2 [Example 18k, 9-Isobutyl-8-methoxy-1-thiophen-2-yl-5,6-dihydro-imidazo[5,1-a]isoquinoline-3-carboxylic acid tert-butyl-methyl-amide]
Second: COc1cc2c(cc1CCC(C)(C)O)-c1c(-c3cccs3)nc(C(=O)N(C)C(C)(C)C)n1CC2 [Example 41c, 9-(3-Hydroxy-3-methyl-butyl)-8-methoxy-1-thiophen-2-yl-5,6-dihydro-imidazo[5,1-a]isoquinoline-3-carboxylic acid tert-butyl-methyl-amide]
The melting point of the first is lower: 124 °C for the first, 140 to 143 °C for the second.

First: COc1cc2c(cc1-c1ccccn1)-c1c(-c3cccs3)nc(C(=O)N(C)C(C)(C)C)n1CC2 [Example 2b, 8-Methoxy-9-pyridin-2-yl-1-thiophen-2-yl-5,6-dihydro-imidazo[5,1-a]isoquinoline-3-carboxylic acid tert-butyl-methyl-amide]
Second: COc1cc2c(cc1-c1cccc(F)n1)-c1c(-c3cccs3)nc(C(=O)N(C)C(C)(C)C)n1CC2 [Example 2c, 9-(6-Fluoro-pyridin-2-yl)-8-methoxy-1-thiophen-2-yl-5,6-dihydro-imidazo[5,1-a]isoquinoline-3-carboxylic acid tert-butyl-methyl-amide]
The melting point of the first is higher: 176 to 177 °C for the first, 161 to 162 °C for the second.

`COc1cccc(Oc2cc3c(cc2OC)CCn2c(C(=O)N(C)C(C)(C)C)nc(-c4cccs4)c2-3)c1` [Example 43b, 8-Methoxy-9-(3-methoxy-phenoxy)-1-thiophen-2-yl-5,6-dihydro-imidazo[5,1-a]isoquinoline-3-carboxylic acid tert-butyl-methyl-amide] and `COc1cc2c(cc1Oc1ccccc1)-c1c(-c3cccs3)nc(C(=O)N(C)C(C)(C)C)n1CC2` [Example 42b, 8-Methoxy-9-phenoxy-1-thiophen-2-yl-5,6-dihydro-imidazo[5,1-a]isoquinoline-3-carboxylic acid tert-butyl-methyl-amide] cannot be ordered by melting point: 123 to 124 °C for the first, 122 to 126 °C for the second.

Compared with `COc1cc2c(cc1-c1cccc(C(=O)N(C)C)c1)-c1c(-c3cccs3)nc(C(=O)N(C)C(C)(C)C)n1CC2` [Example 2n, 9-(3-Dimethylcarbamoyl-phenyl)-8-methoxy-1-thiophen-2-yl-5,6-dihydro-imidazo[5,1-a]iso-quinoline-3-carboxylic acid tert-butyl-methyl-amide], `COc1cc2c(cc1-c1cccc(NC(C)=O)c1)-c1c(-c3cccs3)nc(C(=O)N(C)C(C)(C)C)n1CC2` [Example 2f, 9-(3-Acetylamino-phenyl)-8-methoxy-1-thiophen-2-yl-5,6-dihydro-imidazo[5,1-a]isoquinoline-3-carboxylic acid tert-butyl-methyl-amide] is lower in melting point: 151 °C for the first, 123 °C for the second.

Compared with `COc1cc2c(cc1-c1cccc(S(C)(=O)=O)c1)-c1c(-c3cccs3)nc(C(=O)N(C)C(C)(C)C)n1CC2` [Example 2p, 9-(3-Methanesulfonyl-phenyl)-8-methoxy-1-thiophen-2-yl-5,6-dihydro-imidazo[5,1-a]isoquinoline-3-carboxylic acid tert-butyl-methyl-amide], `COc1ccccc1-c1cc2c(cc1OC)CCn1c(C(=O)N(C)C(C)(C)C)nc(-c3cccs3)c1-2` [Example 2q, 8-Methoxy-9-(2-methoxy-phenyl)-1-thiophen-2-yl-5,6-dihydro-imidazo[5,1-a]isoquinoline-3-carboxylic acid tert-butyl-methyl-amide] is lower in melting point: 216 °C for the first, 188 to 189 °C for the second.

First: COc1cc2c(cc1NC(=O)c1cscn1)-c1c(-c3cccs3)nc(C(=O)N(C)C(C)(C)C)n1CC2 [Example 11, 8-Methoxy-9-[(thiazole-4-carbonyl)-amino]-1-thiophen-2-yl-5,6-dihydro-imidazo[5,1-a]isoquinoline-3-carboxylic acid tert-butyl-methyl-amide]
Second: COc1cc2c(cc1NC(=O)c1csnn1)-c1c(-c3cccs3)nc(C(=O)N(C)C(C)(C)C)n1CC2 [Example 12, 8-Methoxy-9[([1,2,3]thiadiazole-4-carbonyl)-amino]-1-thiophen-2-yl-5,6-dihydro-imidazo[5,1-a]isoquinoline-3-carboxylic acid tert-butyl-methyl-amide]
The melting point of the first is higher: 240 to 242 °C for the first, 210 to 212 °C for the second.

First: CC(C)Cc1ccc2c(c1)-c1c(-c3cccs3)nc(C(=O)N(C)C(C)(C)C)n1CC2 [Example 20b, 9-Isobutyl-1-thiophen-2-yl-5,6-dihydro-imidazo[5,1-a]isoquinoline-3-carboxylic acid tert-butyl-methyl-amide]
Second: COc1cc2c(c(F)c1CC(C)C)-c1c(-c3cccs3)nc(C(=O)N(C)C(C)(C)C)n1CC2 [Example 48j, 10-Fluoro-9-isobutyl-8-methoxy-1-thiophen-2-yl-5,6-dihydro-imidazo[5,1-a]isoquinoline-3-carboxylic acid tert-butyl-methyl-amide]
The melting point of the first is lower: 126 °C for the first, 141 to 142 °C for the second.

Compared with `COc1cc2c(cc1C(=O)NC(C)C)-c1c(-c3cccs3)nc(C(=O)N(C)C(C)(C)C)n1CC2` [Example 5, 8-Methoxy-1-thiophen-2-yl-5,6-dihydro-imidazo[5,1-a]isoquinoline-3,9-dicarboxylic acid 3-(tert-butyl-methyl-amide) 9-isopropylamide], `CCc1nnc(NC(=O)c2cc3c(cc2OC)CCn2c(C(=O)N(C)C(C)(C)C)nc(-c4cccs4)c2-3)s1` [Example 4, 8-Methoxy-1-thiophen-2-yl-5,6-dihydro-imidazo[5,1-a]isoquinoline-3,9-dicarboxylic acid 3-(tert-butyl-methyl-amide) 9-[(5-ethyl-[1,3,4]thiadiazol-2-yl)-amide]] is higher in melting point: 197 to 198 °C for the first, 238 to 240 °C for the second.

First: COc1cc2ccn3c(C(=O)N(C)C(C)(C)C)nc(-c4cccs4)c3c2cc1-c1cnn(C)c1 [Example 17b, 8-Methoxy-9-(1-methyl-1H-pyrazol-4-yl)-1-thiophen-2-yl-imidazo[5,1-a]isoquinoline-3-carboxylic acid tert-butyl-methyl-amide]
Second: COc1cc2ccn3c(C(=O)N(C)C(C)(C)C)nc(-c4cccs4)c3c2cc1C=C(C)C [Example 16e, 8-Methoxy-9-(2-methyl-propenyl)-1-thiophen-2-yl-imidazo[5,1-a]isoquinoline-3-carboxylic acid tert-butyl-methyl-amide]
The melting point of the first is higher: 239 to 241 °C for the first, 121 to 123 °C for the second.

Molecule `CCN(C(=O)c1nc(-c2cccs2)c2n1CCc1cc(OC)c(OCCO)cc1-2)C(C)(C)C` [Example 34b, 9-(2-Hydroxy-ethoxy)-8-methoxy-1-thiophen-2-yl-5,6-dihydro-imidazo[5,1-a]isoquinoline-3-carboxylic acid tert-butyl-ethyl-amide] has a melting point of 178 to 186 °C.
